Results reported in ChEMBL document CHEMBL1201862, “PubChem BioAssay data set” (2004).
Activity calls are given as the source filed them.

How the values were obtained:
Type in all cases: functional
[1] = target: Protein kinase C theta type (Homo sapiens, UniProt Q04759); experiment: Navigating the Kinome. Panel member name: PRKCQ
[2] = target: Ribosomal protein S6 kinase alpha-3 (Homo sapiens, UniProt P51812);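 further: measured within a kinome-wide profiling panel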
[3] = target: Tyrosine-protein kinase JAK2 (Homo sapiens, UniProt O60674);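 further: JAK2 tested as one member of a kinase panel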
[4] = target: 5'-AMP-activated protein kinase catalytic subunit alpha-1 (Homo sapiens, UniProt Q13131)
[5] = target: Proto-oncogene tyrosine-protein kinase receptor Ret (Homo sapiens, UniProt P07949);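 further: measured within a kinome-wide profiling panel, RET as the panel member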
Proto-oncogene tyrosine-protein kinase receptor Ret, sequence (P07949 whole entry): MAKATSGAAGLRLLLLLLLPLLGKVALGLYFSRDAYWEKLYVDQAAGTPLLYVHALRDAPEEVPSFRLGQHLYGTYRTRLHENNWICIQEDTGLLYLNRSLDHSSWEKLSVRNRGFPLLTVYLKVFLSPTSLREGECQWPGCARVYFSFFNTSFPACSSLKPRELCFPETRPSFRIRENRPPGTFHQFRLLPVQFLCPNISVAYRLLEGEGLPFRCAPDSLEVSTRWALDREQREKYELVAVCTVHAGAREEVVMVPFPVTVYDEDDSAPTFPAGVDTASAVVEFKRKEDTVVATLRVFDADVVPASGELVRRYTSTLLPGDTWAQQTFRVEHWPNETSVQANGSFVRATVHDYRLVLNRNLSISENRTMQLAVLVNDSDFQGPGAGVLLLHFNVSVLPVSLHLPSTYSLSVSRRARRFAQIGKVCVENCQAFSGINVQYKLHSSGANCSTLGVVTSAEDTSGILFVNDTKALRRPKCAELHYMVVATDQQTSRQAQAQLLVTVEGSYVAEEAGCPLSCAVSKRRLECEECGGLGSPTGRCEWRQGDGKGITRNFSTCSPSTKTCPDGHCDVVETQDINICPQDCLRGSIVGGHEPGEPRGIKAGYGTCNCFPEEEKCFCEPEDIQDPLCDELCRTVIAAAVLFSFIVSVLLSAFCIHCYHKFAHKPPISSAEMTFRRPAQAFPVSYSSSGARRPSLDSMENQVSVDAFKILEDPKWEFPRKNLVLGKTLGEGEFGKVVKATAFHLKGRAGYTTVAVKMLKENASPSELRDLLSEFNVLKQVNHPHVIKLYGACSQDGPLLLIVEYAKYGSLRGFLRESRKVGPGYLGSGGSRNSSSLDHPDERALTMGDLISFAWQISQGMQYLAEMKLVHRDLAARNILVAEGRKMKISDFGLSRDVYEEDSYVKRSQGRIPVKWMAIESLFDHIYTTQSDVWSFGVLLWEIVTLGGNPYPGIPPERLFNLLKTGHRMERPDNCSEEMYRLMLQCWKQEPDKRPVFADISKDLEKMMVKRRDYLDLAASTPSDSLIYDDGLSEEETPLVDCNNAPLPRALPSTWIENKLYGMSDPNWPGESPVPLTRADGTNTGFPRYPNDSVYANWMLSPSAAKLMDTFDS

[6] = target: Tyrosine-protein kinase receptor TYRO3 (Homo sapiens, UniProt Q06418);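 further: TYRO3 value obtained as one member of a kinome-wide profiling panel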
[7] = target: Death-associated protein kinase 3 (Homo sapiens, UniProt O43293);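 further: measured as one member of a kinome-wide profiling panel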
Death-associated protein kinase 3, sequence (O43293 whole entry): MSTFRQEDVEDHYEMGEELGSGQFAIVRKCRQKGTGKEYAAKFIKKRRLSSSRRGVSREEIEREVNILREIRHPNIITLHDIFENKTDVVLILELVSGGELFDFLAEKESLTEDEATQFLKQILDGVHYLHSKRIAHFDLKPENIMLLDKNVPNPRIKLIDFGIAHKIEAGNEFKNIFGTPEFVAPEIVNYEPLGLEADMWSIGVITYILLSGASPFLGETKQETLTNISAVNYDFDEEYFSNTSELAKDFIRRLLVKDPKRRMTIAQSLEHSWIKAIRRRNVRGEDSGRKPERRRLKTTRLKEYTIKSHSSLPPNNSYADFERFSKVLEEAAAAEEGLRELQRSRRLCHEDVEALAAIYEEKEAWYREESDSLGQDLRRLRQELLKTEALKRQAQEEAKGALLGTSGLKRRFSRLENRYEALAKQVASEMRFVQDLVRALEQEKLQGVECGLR

[8] = target: Mitogen-activated protein kinase 8 (Homo sapiens, UniProt P45983);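 further: value comes from one member of a kinome-wide kinase profiling panel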
[9] = target: Serine/threonine-protein kinase pim-1 (Homo sapiens, UniProt P11309)
Aurora kinase A = target: T1, Aurora kinase A (Homo sapiens, UniProt O14965);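 further: value from the Navigating the Kinome kinase panel profiling, panel entry STK6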
T1 sequence (O14965 whole entry): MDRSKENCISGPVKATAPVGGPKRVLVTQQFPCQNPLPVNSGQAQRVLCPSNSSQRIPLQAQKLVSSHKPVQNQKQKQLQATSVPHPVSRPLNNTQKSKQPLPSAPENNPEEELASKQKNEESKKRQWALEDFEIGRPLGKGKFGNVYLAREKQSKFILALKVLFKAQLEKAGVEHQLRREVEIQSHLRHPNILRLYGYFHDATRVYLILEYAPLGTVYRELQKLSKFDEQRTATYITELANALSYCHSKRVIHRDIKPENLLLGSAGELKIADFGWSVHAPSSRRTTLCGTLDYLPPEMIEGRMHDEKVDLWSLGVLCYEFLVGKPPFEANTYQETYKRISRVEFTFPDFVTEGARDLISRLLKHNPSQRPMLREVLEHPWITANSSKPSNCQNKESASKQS

LIM domain kinase 1 = LIM domain kinase 1 (Homo sapiens, UniProt P53667); experiment: Navigating the Kinome. Panel member name: LIMK1
[10] = target: High affinity nerve growth factor receptor (Homo sapiens, UniProt P04629);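 further: NTRK1 tested as one member of a kinome-wide profiling panel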
High affinity nerve growth factor receptor, sequence (P04629 whole entry): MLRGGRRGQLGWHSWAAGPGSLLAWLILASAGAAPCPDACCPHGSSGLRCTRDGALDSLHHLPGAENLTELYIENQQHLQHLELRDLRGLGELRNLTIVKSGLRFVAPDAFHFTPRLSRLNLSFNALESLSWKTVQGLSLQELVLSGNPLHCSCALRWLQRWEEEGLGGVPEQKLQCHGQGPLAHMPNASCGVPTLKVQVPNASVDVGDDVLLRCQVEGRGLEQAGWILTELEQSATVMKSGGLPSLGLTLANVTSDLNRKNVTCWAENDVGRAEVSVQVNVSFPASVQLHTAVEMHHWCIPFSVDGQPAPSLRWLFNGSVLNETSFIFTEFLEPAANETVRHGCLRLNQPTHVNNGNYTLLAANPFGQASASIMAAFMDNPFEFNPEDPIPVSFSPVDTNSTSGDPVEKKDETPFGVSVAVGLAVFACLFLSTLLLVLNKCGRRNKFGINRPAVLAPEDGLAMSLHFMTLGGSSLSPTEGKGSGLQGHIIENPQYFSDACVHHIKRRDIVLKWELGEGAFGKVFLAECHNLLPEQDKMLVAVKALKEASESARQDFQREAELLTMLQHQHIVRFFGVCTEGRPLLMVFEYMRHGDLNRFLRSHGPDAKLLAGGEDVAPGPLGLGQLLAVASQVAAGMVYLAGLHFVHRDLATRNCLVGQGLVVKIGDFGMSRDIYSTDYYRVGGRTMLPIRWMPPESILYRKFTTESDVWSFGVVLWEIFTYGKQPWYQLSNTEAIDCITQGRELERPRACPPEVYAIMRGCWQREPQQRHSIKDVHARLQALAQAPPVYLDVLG

[11] = target: Glycogen synthase kinase-3 alpha (Homo sapiens, UniProt P49840);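 further: GSK3A result taken from a broad kinome-wide kinase panel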
[12] = target: Mitogen-activated protein kinase kinase kinase kinase 2 (Homo sapiens, UniProt Q12851);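 further: measured as one member of a kinome-wide kinase panel, with MAP4K2 as the panel entry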
[13] = target: Hepatocyte growth factor receptor (Homo sapiens, UniProt P08581);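 further: kinase panel profiling across the kinome, with MET as the panel member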
Hepatocyte growth factor receptor, sequence (P08581 whole entry): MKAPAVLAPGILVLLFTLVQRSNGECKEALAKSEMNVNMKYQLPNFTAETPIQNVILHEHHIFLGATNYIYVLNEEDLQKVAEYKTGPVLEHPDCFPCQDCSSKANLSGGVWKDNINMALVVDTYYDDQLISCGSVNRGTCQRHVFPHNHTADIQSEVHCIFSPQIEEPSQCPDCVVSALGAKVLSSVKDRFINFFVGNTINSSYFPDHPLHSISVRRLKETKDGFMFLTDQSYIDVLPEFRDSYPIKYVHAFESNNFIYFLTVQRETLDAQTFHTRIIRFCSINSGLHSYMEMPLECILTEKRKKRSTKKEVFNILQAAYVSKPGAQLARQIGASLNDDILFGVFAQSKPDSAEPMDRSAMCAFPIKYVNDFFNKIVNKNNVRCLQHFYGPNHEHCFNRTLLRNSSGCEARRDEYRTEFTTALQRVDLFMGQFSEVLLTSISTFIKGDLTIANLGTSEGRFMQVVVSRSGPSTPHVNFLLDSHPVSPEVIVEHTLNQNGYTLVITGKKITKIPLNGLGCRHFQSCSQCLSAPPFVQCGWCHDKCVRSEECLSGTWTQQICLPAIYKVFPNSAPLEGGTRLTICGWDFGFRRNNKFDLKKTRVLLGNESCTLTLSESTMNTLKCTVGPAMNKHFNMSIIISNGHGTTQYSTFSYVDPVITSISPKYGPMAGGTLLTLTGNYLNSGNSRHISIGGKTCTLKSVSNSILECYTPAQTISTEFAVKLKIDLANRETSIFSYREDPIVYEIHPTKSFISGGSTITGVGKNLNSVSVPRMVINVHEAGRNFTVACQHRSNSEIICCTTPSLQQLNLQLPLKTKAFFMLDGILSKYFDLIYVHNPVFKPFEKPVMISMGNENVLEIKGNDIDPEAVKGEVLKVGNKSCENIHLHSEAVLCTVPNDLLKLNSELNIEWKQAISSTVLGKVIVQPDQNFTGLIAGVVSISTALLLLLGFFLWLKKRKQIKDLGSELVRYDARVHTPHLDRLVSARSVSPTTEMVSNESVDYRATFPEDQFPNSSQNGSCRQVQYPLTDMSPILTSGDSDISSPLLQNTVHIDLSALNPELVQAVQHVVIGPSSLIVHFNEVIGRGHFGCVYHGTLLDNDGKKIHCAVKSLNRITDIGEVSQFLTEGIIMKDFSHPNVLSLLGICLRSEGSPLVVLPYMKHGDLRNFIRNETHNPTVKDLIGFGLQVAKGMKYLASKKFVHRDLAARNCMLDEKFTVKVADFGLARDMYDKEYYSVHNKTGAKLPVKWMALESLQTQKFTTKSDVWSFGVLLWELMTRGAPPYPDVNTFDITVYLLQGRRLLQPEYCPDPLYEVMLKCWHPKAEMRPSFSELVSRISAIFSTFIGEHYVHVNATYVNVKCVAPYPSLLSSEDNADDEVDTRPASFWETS

[14] = target: Platelet-derived growth factor receptor beta (Homo sapiens, UniProt P09619);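 further: value comes from a kinome panel, with PDGFRB tested as one panel member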
[15] = target: Receptor-type tyrosine-protein kinase FLT3 (Homo sapiens, UniProt P36888);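 further: FLT3 was tested as one member of a kinome-wide kinase panel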
[16] = target: Serine/threonine-protein kinase Chk1 (Homo sapiens, UniProt O14757);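 further: measured as one member of a kinome-wide kinase profiling panel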
[17] = target: Tyrosine-protein kinase ABL1 (Homo sapiens, UniProt P00519)
[18] = target: Vascular endothelial growth factor receptor 2 (Homo sapiens, UniProt P35968)
[19] = target: Dual specificity tyrosine-phosphorylation-regulated kinase 1B (Homo sapiens, UniProt Q9Y463); experiment: Navigating the Kinome. Panel member name: DYRK1B
[20] = target: Cyclin-dependent kinase 19 (Homo sapiens, UniProt Q9BWU1); experiment: Navigating the Kinome. Panel member name: CDC2L6
[21] = target: Glycogen synthase kinase-3 beta (Homo sapiens, UniProt P49841);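 further: value comes from a broad kinome profiling panel, with GSK3B as the panel member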
[22] = target: Cyclin-dependent kinase 9 (Homo sapiens, UniProt P50750);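 further: value from the CDK9 entry of a kinome-spanning kinase panel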
[23] = target: BDNF/NT-3 growth factors receptor (Homo sapiens, UniProt Q16620);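 further: NTRK2 measured as one member of a broad kinome-wide kinase profiling panel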
[24] = target: cAMP-dependent protein kinase catalytic subunit alpha (Homo sapiens, UniProt P17612)
[25] = target: Dual specificity protein kinase CLK4 (Homo sapiens, UniProt Q9HAZ1)
[26] = target: Macrophage colony-stimulating factor 1 receptor (Homo sapiens, UniProt P07333);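 further: value comes from the Navigating the Kinome screening panel, CSF1R member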
[27] = target: Dual specificity mitogen-activated protein kinase kinase 2 (Homo sapiens, UniProt P36507); experiment: Navigating the Kinome. Panel member name: MAP2K2
Dual specificity mitogen-activated protein kinase kinase 2, sequence (P36507 whole entry): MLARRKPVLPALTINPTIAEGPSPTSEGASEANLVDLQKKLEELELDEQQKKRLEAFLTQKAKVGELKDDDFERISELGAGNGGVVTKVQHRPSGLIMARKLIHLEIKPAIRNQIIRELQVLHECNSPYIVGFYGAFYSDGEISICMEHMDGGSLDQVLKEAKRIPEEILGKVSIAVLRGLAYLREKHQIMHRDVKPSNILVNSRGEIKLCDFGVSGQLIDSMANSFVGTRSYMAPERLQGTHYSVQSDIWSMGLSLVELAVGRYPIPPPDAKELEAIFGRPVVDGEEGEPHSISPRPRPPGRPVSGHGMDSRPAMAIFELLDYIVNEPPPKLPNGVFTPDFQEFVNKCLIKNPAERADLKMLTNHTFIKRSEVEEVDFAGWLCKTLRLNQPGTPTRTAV

[28] = target: Dual specificity tyrosine-phosphorylation-regulated kinase 1A (Homo sapiens, UniProt Q13627);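 further: measured against DYRK1A as one member of a broad kinome profiling panel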
[29] = target: Calcium/calmodulin-dependent protein kinase type II subunit alpha (Homo sapiens, UniProt Q9UQM7); experiment: Navigating the Kinome. Panel member name: CAMK2A
[30] = target: Sphingosine 1-phosphate receptor 1 (Homo sapiens, UniProt P21453); experiment: Late-stage fluorescence-based dose-response cell-based counterscreen assay to identify agonists of the Sphingosine 1-Phosphate Receptor 4 (S1P4): Sphingosine 1-Phosphate Receptor 1 (S1P1) agonist assay Set 2.
[31] = target: Sphingosine 1-phosphate receptor 5 (Homo sapiens, UniProt Q9H228); experiment: activation of human S1P5 receptor – cell-based, fluorescence, set 2, counter-screen for S1P4 agonist project, late-stage follow-up (AID 504867)
[32] = target: Sphingosine 1-phosphate receptor 3 (Homo sapiens, UniProt Q99500); experiment: Late-stage fluorescence-based dose-response cell-based counterscreen assay to identify agonists of the Sphingosine 1-Phosphate Receptor 4 (S1P4): Sphingosine 1-Phosphate Receptor 3 (S1P3) agonist assay Set 2.
[33] = target: T2, Sphingosine 1-phosphate receptor 2 (Homo sapiens, UniProt O95136); experiment: activation of human S1P2 receptor – cell-based, fluorescence, set 2, counter-screen for S1P4 agonist project, late-stage follow-up (AID 504873)
T2 sequence (O95136 whole entry): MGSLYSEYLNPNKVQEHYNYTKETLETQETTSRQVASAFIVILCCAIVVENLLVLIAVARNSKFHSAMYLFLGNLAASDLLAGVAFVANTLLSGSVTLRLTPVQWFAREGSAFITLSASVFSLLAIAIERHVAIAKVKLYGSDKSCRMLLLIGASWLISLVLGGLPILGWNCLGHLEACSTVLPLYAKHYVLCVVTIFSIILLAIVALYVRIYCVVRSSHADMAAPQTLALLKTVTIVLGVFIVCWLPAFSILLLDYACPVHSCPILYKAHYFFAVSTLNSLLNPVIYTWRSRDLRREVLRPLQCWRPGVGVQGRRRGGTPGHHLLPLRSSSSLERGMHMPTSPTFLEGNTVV

[34] = target: T2, Sphingosine 1-phosphate receptor 2; experiment: Late-stage fluorescence-based dose-response cell-based counterscreen assay to identify agonists of the Sphingosine 1-Phosphate Receptor 3 (S1P3): Sphingosine 1-Phosphate Receptor 2 (S1P2) agonist assay.
[35] = target: Sphingosine 1-phosphate receptor 4 (Homo sapiens, UniProt O95977); experiment: Late-stage fluorescence-based dose-response cell-based counterscreen assay to identify agonists of the Sphingosine 1-Phosphate Receptor 3 (S1P3): Sphingosine 1-Phosphate Receptor 4 (S1P4) agonist assay.
[36] = target: T3, High affinity choline transporter 1 (Homo sapiens, UniProt Q9GZV3); experiment: human choline transporter blockers, potency – cell-based, 5-point CRC, membrane potential dye, dose response (AID 504840)
T3 sequence (Q9GZV3 whole entry): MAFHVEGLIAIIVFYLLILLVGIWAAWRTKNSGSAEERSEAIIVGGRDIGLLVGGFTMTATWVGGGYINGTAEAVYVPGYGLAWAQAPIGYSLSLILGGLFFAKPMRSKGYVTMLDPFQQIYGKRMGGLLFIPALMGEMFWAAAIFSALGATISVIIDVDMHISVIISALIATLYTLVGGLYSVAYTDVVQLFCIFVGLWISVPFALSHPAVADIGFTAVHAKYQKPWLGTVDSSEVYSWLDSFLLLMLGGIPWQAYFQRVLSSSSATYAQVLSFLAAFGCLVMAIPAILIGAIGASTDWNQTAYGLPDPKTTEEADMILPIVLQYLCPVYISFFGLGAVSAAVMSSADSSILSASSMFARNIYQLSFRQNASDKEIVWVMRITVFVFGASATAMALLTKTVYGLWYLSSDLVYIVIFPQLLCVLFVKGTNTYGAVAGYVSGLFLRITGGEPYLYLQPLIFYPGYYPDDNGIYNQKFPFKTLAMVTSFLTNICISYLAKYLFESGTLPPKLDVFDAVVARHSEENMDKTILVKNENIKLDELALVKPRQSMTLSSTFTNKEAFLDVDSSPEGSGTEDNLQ

[37] = target: T3, High affinity choline transporter 1; experiment: human choline transporter blockers, potency – cell-based, 10-point CRC, membrane potential dye, dose response (AID 588401);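 further: membrane potential dye fluorescence of choline-evoked depolarization via CHT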
[38] = target: DNA dC->dU-editing enzyme APOBEC-3G (Homo sapiens, UniProt Q9HC16); experiment: inhibition of APOBEC3G ssDNA deamination – biochemical, fluorescence, single-stranded DNA substrate, SAR follow-up (AID 602136); settings: read-out: IC50_Mean
[39] = target: DNA dC->dU-editing enzyme APOBEC-3A (Homo sapiens, UniProt P31941); experiment: SAR analysis of small molecule inhibitors of APOBEC3A DNA Deaminase via a fluorescence-based single-stranded DNA deaminase assay.; settings: read-out: IC50_Mean
DNA dC->dU-editing enzyme APOBEC-3A, sequence (P31941 whole entry): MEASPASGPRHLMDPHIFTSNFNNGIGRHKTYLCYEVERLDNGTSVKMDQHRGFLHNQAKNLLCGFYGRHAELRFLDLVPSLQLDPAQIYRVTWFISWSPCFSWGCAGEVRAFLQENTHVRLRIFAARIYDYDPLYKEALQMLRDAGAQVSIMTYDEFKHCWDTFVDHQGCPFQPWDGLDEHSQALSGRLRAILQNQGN

[40] = target: 26S proteasome non-ATPase regulatory subunit 14 (Homo sapiens, UniProt O00487); experiment: inhibition of proteasome subunit RPN11 – biochemical, fluorescence polarization, uHTS hits, confirmation (AID 602368)
26S proteasome non-ATPase regulatory subunit 14, sequence (O00487 whole entry): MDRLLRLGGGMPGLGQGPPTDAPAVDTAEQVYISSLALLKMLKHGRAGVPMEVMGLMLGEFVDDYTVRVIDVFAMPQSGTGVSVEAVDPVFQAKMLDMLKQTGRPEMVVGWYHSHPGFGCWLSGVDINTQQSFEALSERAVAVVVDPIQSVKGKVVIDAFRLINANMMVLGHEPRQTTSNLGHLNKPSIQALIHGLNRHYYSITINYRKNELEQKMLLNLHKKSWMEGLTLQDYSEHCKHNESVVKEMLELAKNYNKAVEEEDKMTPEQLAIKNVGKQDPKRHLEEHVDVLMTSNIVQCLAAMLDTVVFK

[41] = target: 72 kDa type IV collagenase (Homo sapiens, UniProt P08253); experiment: Dose Response validation of uHTS RPN11 inhibitor hits using a MMP-2 Fluorescence assay.
Prothrombin = Prothrombin (Bos taurus, UniProt P00735); experiment: thrombin protease inhibitors – biochemical, fluorescence polarization, uHTS hits, dose response (AID 602369)

COc1ccc(-c2ccc(N)cc2)c2cnoc12 was tested, and the Ki [1] was > 79.4 µM (inactive), the Ki [2] was 63.1 µM (active) and the Ki [3] was 79.4 µM (active). The Ki [4] was 79.4 µM (active), the Ki [5] was 39.8 µM (active) and the Ki [6] was 100 µM (active). The Ki [7] was 79.4 µM (active), the Ki [8] was 50.1 µM (active) and the Ki [9] was 12.6 µM (active). For the same molecule, the Ki (Aurora kinase A) was > 50.1 µM (inactive), the Ki (LIM domain kinase 1) was 3.98 µM (active) and the Ki [10] was 15.8 µM (active). The Ki [11] was 100 µM (active), the Ki [12] was 63.1 µM (active) and the Ki [13] was 79.4 µM (active). For the same molecule, the Ki [14] was > 79.4 µM (inactive), the Ki [15] was 79.4 µM (active) and the Ki [16] was 3.98 µM (active). For the same molecule, the Ki [17] was 63.1 µM (active), the Ki [18] was > 79.4 µM (inactive) and the Ki [19] was 50.1 µM (active). For the same molecule, the Ki [20] was > 100 µM (inactive), the Ki [21] was 31.6 µM (active) and the Ki [22] was > 63.1 µM (inactive). For the same molecule, the Ki [23] was 100 µM (active), the Ki [24] was > 50.1 µM (inactive) and the Ki [25] was 7.94 µM (active). The Ki [26] was > 100 µM (inactive), the Ki [27] was 100 µM (active) and the Ki [28] was > 63.1 µM (inactive). For the same molecule, the Ki [29] was 79.4 µM (active).

C/N=C1/S/C(=C/c2cc(C)n(-c3ccc(F)cc3F)c2C)C(=O)N1C was tested, and the EC50 [30] was 4.47 µM (active), the EC50 [31] was > 25 µM (inactive) and the EC50 [32] was > 25 µM (inactive). For the same molecule, the EC50 [33] was > 25 µM (inactive).

With O=C(c1cc(C2CC2)on1)N(C1CCCCCC1)C1CCCC1 the EC50 [34] was > 50 µM (inactive) and the EC50 [35] was > 50 µM (inactive).

For CC(/C=C1\SC(=S)N(CC(=O)O)C1=O)=C\c1ccccc1, the IC50 [36] was 9.45 µM (active) and the IC50 [37] was 6.48 µM (active).

CN(CC1CCCN(CCc2ccc(Cl)cc2)C1)C(=O)c1cc2ncccn2n1 (centres undefined) was tested, and the IC50 [38] was > 99 µM (inactive) and the IC50 [39] was > 99 µM (inactive).

For O=C1NC(=O)N(c2cccc3ccccc23)C(=O)/C1=C\NN1CCCCC1c1cccnc1 (centres undefined), the IC50 [40] was 27.4 µM (active), the IC50 [41] was > 100 µM (inactive) and the IC50 (Prothrombin) was 59.6 µM (active).
